A short description of series [1]: Dissolution of hair dye moieties in neat ketal solvents and storage at room temperature (Example 7). It counts as physicochemical. The source says:
The respective hair dye compositions and their methods of manufacturing are discussed in detail below.

The nature of series [2]: Saturated solubility of oxidation dye intermediates in hair dye formulations (UV-Vis against calibration curve). Conditions: 10 minutes stirring, three replications.

Turning to `Nc1ccc(N)cc1` [p-phenylenediamine], the dissolution in ketal result is given as “did not completely dissolve” in series [1] (1% solids in Et-LPK at 80° C.); “dissolved” in series [1] (5% solids in Bu-LGK at 80° C.); “dissolved” in series [1] (5% solids in Et-LGK at 80° C.); “did not completely dissolve” in series [1] (5% solids in Et-LPK at 80° C.); “partially dissolved” in series [1] (25% solids in Bu-LGK at 80° C.). Moreover, the solubility after storage result is “a precipitant remained” in series [1] (5% and 1% solids in Et-LPK, storage at room temperature); “still soluble” in series [1] (5% solids in Et-LGK (dissolved at 80° C.), 24 hours of storage at room temperature). Further, the “Average Solubility” value in series [2] (in formulation 5A (7% Et-LGK), pH 10.2, 27° C.) is 0.07 % wt./wt; in series [2] (in formulation 5B (7% Et-LGK), pH 8.5, 27° C.) it was 0.07 % wt./wt; in series [2] (in formulation 6A (7% Et-LPK), pH 10.2, 27° C.), 0 % wt./wt; in series [2] (in formulation 6B (7% Et-LPK), pH 8.5, 27° C.), less than 0.01 % wt./wt.
For `Oc1cccc(O)c1` [Resorcinol], the dissolution in ketal entry in series [1] (10% solids in Bu-LGK at 80° C. with agitation), in series [1] (10% solids in Et-LGK at 80° C. with agitation) and in series [1] (10% solids in Et-LPK at room temperature with agitation) was “dissolved” each time.
For `Nc1cccc(O)c1` [m-Aminophenol], the dissolution in ketal result in series [1] (5% solids in Et-LGK at room temperature) and in series [1] (5% solids in Et-LPK at 80° C.) was “dissolved” in each case.

These data come from patent US8632612B2, “Compositions for dyeing keratin fibers” (Segetis, Inc., priority 2010, dated 2014).
